The structures appear in SMILES notation. Starred links: 1 amine or outer side, 2 acyl side, 3 side chain; linkers in the order of their positions; H or OH if unused. Positions of bridges follow the written chain, without caps; N, C: chain ends. Non-standard residues stand in square brackets, D forms with d. Residues, ends and D or L forms follow the SMILES beside them. *: point of attachment. hPhe(3-Cl-4-CF3) = N[C@@H](CCc1ccc(C(F)(F)F)c(Cl)c1)C(=O)O; hPhe(3-F,4-CF3) = N[C@@H](CCc1ccc(C(F)(F)F)c(F)c1)C(=O)O; NMePhe(4-CF3) = CN[C@@H](Cc1ccc(C(F)(F)F)cc1)C(=O)O; hPhe(4-CF3) = N[C@@H](CCc1ccc(C(F)(F)F)cc1)C(=O)O; NMeAla(4-thiazolyl) = CN[C@@H](Cc1cscn1)C(=O)O; NMeAbu(4,4,4-F3) = CN[C@@H](CC(F)(F)F)C(=O)O; NMePhe(4-Cl) = CN[C@@H](Cc1ccc(Cl)cc1)C(=O)O; NMePhe(4-Me) = CN[C@@H](Cc1ccc(C)cc1)C(=O)O; NMedβ3hAla = C[C@H](CC(=O)[*:2])N(C)[*:1]; NMeAla(cPent) = CN[C@@H](CC1CCCC1)C(=O)O; NMePhe(2-F) = CN[C@@H](Cc1ccccc1F)C(=O)O; NMeGly(cPent) = CN[C@H](C(=O)O)C1CCCC1; NMeCha = CN[C@@H](CC1CCCCC1)C(=O)O; NMeChg = CN[C@H](C(=O)O)C1CCCCC1; NMeF = CN[C@@H](Cc1ccccc1)C(=O)O; NMeI = CC[C@H](C)[C@H](NC)C(=O)O; N(CH2CH2)2CF2 = FC1(F)CCN(*)CC1; Cha = N[C@@H](CC1CCCCC1)C(=O)O; NMeD = CN[C@@H](CC(=O)O)C(=O)O; NMeL = CN[C@@H](CC(C)C)C(=O)O; NMeV = CN[C@H](C(=O)O)C(C)C; d(β3hA) = C[C@@H](N)CC(=O)O; NMeS = CN[C@@H](CO)C(=O)O; Morpholide = C1CN(*)CCO1; NMeA = CN[C@@H](C)C(=O)O; Piperidide = C1CCN(*)CC1; Pyrrolidide = C1CCN(*)C1; dNMeA = CN[C@H](C)C(=O)O; Ac5c = NC1(C(=O)O)CCCC1; Aze = O=C(O)[C@@H]1CCN1; βAla = NCCC(=O)O; Sar = CNCC(=O)O; Propyl = CCC*

For the assay, the target named is T1, Kras and SOS1 (biotin-tagged human Kras loaded with GDP, His-tagged human SOS1) (Homo sapiens, UniProt P01116, G12D).
T1 construct: made in house; host or cells: E. coli (stated for Kras only)
T1 sequence (P01116 1-188 isoform P01116-2 G12D): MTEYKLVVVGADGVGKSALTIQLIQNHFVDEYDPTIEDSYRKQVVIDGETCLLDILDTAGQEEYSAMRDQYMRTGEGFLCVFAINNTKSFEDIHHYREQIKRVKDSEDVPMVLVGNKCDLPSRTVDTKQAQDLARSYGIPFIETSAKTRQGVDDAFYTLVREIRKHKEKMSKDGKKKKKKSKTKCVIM
Briefly: Protein-protein interaction inhibition between Kras and SOS1 (KrasGl2D-SOS PPI) using AlphaScreen. The format is binding. As to conditions: AlphaScreen; biotin-tagged human Kras loaded with GDP, His-tagged human SOS1; read-out: KRAS G12D-SOS PPI IC50. Put shortly: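 Read-out is acceptor-bead light at 520-620 nm, arising when 680 nm-irradiated nickel donor beads pass singlet oxygen to streptavidin acceptors. The bead pair links His-tagged SOS1 with biotin-tagged, GDP-bound Kras from E. coli.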

As for `CC[C@H](C)[C@@H]1NC(=O)[C@H](CC(C)C)N(C)C(=O)CCNC(=O)[C@H](C(C)C)N(C)C(=O)C2(CCCC2)NC(=O)[C@@H]2CCCN2C(=O)[C@H](CCc2ccc(C(F)(F)F)c(Cl)c2)NC(=O)CN(C)C(=O)[C@H](CC2CCCCC2)N(C)C(=O)CN(C)C(=O)CN(C)C1=O` [Compound 979] (cyclo([Ac5c][NMeV][βAla][NMeL]I[Sar][Sar][NMeCha][Sar][hPhe(3-Cl-4-CF3)]P)), the 50% inhibitory concentration (IC50) is 37 nM.

Take `CC[C@H](C)[C@@H]1NC(=O)[C@H](CC(F)(F)F)N(C)C(=O)C[C@@H](C(=O)N2CCOCC2)N(C)C(=O)[C@H](C2CCCCC2)N(C)C(=O)C2(CCCC2)NC(=O)[C@@H]2CCCN2C(=O)[C@H](CCc2ccc(C(F)(F)F)c(Cl)c2)NC(=O)CN(C)C(=O)[C@H](Cc2ccc(C(F)(F)F)cc2)N(C)C(=O)CN(C)C(=O)CN(C)C1=O` [Compound 981] ([NMeAbu(4,4,4-F3)]I[Sar][Sar][NMePhe(4-CF3)][Sar][hPhe(3-Cl-4-CF3)]P[Ac5c][NMeChg][NMeD]-Morpholide; lactam N-11): the IC50 came to 0.37 nM.

For `CC[C@H](C)[C@@H]1NC(=O)[C@H](CC(C)C)N(C)C(=O)C[C@@H](C(=O)N(C)C)N(C)C(=O)[C@H]([C@@H](C)CC)N(C)C(=O)[C@H](C(C)C)NC(=O)[C@H](Cc2cscn2)N(C)C(=O)[C@H](CCc2ccc(C(F)(F)F)c(Cl)c2)NC(=O)CN(C)C(=O)[C@H](Cc2ccc(C)cc2)N(C)C(=O)[C@@H]2CCN2C(=O)[C@H](C)N(C)C1=O` [Compound 982] ([NMeL]I[NMeA][Aze][NMePhe(4-Me)][Sar][hPhe(3-Cl-4-CF3)][NMeAla(4-thiazolyl)]V[NMeI][NMeD]-NMe2; lactam N-11), the IC50 was determined as 48 nM.

As for `CC[C@H](C)[C@@H]1NC(=O)[C@H](CC(C)C)N(C)C(=O)C[C@@H](C(=O)N2CCCCC2)N(C)C(=O)[C@H](C2CCCC2)N(C)C(=O)C2(CCCC2)NC(=O)[C@H](CC(=O)N2CCC(F)(F)CC2)N(C)C(=O)[C@H](CCc2ccc(C(F)(F)F)c(Cl)c2)NC(=O)CN(C)C(=O)[C@H](CC2CCCCC2)N(C)C(=O)[C@@H]2CCN2C(=O)[C@H](C)N(C)C1=O` [Compound 984] ([NMeL]I[NMeA][Aze][NMeCha][Sar][hPhe(3-Cl-4-CF3)][NMeD](N(CH2CH2)2CF2)[Ac5c][NMeGly(cPent)][NMeD]-Piperidide; lactam N-11), the IC50 was 25 nM.

Turning to `CC(C)C[C@H]1C(=O)N[C@@H](CC2CCCCC2)C(=O)N(C)CC(=O)N(C)CC(=O)N(C)[C@@H](CC2CCCCC2)C(=O)N(C)CC(=O)N[C@@H](CCc2ccc(C(F)(F)F)c(Cl)c2)C(=O)N2CCC[C@H]2C(=O)NC2(CCCC2)C(=O)N(C)[C@@H](C(C)C)C(=O)N(C)[C@H](C(=O)N2CCCCC2)CC(=O)N1C` [Compound 986] ([NMeL][Cha][Sar][Sar][NMeCha][Sar][hPhe(3-Cl-4-CF3)]P[Ac5c][NMeV][NMeD]-Piperidide; lactam N-11), the concentration for half-maximal inhibition (IC50) amounted to 25 nM.

For the molecule `CCCOC[C@H]1C(=O)N(C)CC(=O)N[C@@H](CCc2ccc(C(F)(F)F)c(F)c2)C(=O)N2CCC[C@H]2C(=O)NC2(CCCC2)C(=O)N(C)[C@@H](C2CCCC2)C(=O)N(C)[C@H](C(=O)N2CCCC2)CC(=O)N(C)[C@@H](CC(C)C)C(=O)N[C@@H]([C@@H](C)CC)C(=O)N(C)[C@@H](C)C(=O)N2CC[C@H]2C(=O)N1C` [Compound 987] ([NMeL]I[NMeA][Aze][NMeS](Propyl)[Sar][hPhe(3-F,4-CF3)]P[Ac5c][NMeGly(cPent)][NMeD]-Pyrrolidide; lactam N-11), the IC50 worked out at 0.96 nM.

Consider `CC[C@H](C)[C@@H]1NC(=O)[C@H](C)NC(=O)C[C@@H](C(=O)N2CCCC2)NC(=O)[C@H](CC(C)C)N(C)C(=O)[C@H](Cc2ccccc2)N(C)C(=O)[C@H](CC(C)C)NC(=O)[C@H](CCc2ccc(C(F)(F)F)cc2)NC(=O)CN(C)C(=O)[C@H](Cc2ccc(Cl)cc2)N(C)C(=O)CN(C)C(=O)CN(C)C1=O` [Compound 989] (AI[Sar][Sar][NMePhe(4-Cl)][Sar][hPhe(4-CF3)]L[NMeF][NMeL]D-Pyrrolidide; lactam N-11), for which the IC50 worked out at 34 nM.

For the molecule `CC[C@H](C)[C@@H]1NC(=O)[C@H](C)N(C)C(=O)C[C@@H](C)NC(=O)[C@H](C2CCCC2)N(C)C(=O)C2(CCCC2)NC(=O)[C@@H]2CCCN2C(=O)[C@H](CCc2ccc(C(F)(F)F)c(Cl)c2)NC(=O)[C@@H](C)N(C)C(=O)[C@H](Cc2ccccc2F)N(C)C(=O)[C@@H]2CCN2C(=O)[C@H](C)N(C)C1=O` [Compound 990] (cyclo([Ac5c][NMeGly(cPent)][d(β3hA)][NMeA]I[NMeA][Aze][NMePhe(2-F)][dNMeA][hPhe(3-Cl-4-CF3)]P)), the IC50 was determined as 83 nM.

Turning to `CC[C@H](C)[C@@H]1NC(=O)[C@H](CC(C)C)N(C)C(=O)C[C@@H](C)N(C)C(=O)[C@H](CC2CCCC2)N(C)C(=O)C2(CCCC2)NC(=O)[C@@H]2CCCN2C(=O)[C@H](CCc2ccc(C(F)(F)F)c(Cl)c2)NC(=O)CN(C)C(=O)[C@H](CC2CCCCC2)N(C)C(=O)CN(C)C(=O)CN(C)C1=O` [Compound 991] (cyclo([Ac5c][NMeAla(cPent)][NMedβ3hAla][NMeL]I[Sar][Sar][NMeCha][Sar][hPhe(3-Cl-4-CF3)]P)), the IC50 was determined as 76 nM.

The record behind these values is patent publication US12371454B2, “Cyclic peptide compound having Kras inhibitory action” (priority 2019, dated 2025).
